Entries after “also recorded” stand apart in the source; their conditions may differ. Like-named read-outs stand apart in the source and are kept apart here. Non-standard residues stand in square brackets, D forms with d. *: point of attachment. Benzoyl(4-F) = O=C(c1ccc(F)cc1)*; Cit = NC(=O)NCCC[C@H](N)C(=O)O
What was measured:
[1] = test system: H1299 cells (large cell carcinoma); test: Colony assay (agar), H1299; type: cell-based, human; conditions: 100 μg\ml BKT140 with CXCL12
Description: (§1) The H460 (large cell carcinoma), A549 (Adenocarcinoma), H358 (Bronchoalveolar carcinoma), H1299 (large cell carcinoma)—cell lines were all purchased from ATCC and were maintained in RPMI (Gibco Laboratories, Grand Island, N.Y.) containing 10% fetal calf serum (FCS), 1 mM L-glutamine, 100 U/ml penicillin, and 0.01 mg/ml streptomycin (Biological Industries, Kibbutz Beth Haemek, Israel). L-4 (a primary NSCLC cell line) was generated from large cell carcinoma as previously described (Wald et al, J Thorac Cardiovasc Surg. 2011 June; 141(6): 1503-12).
(§2) Agar base layer was prepared as follows: 45 ml of RPMI+12% FCS was mixed with 15 ml of RPMI X2+12% FCS and with 15 ml of 2.5% agar in double distilled water. Tumor cells were suspended in RPMI+10% FCS. Cell suspension was mixed in a ratio of 1:3 with the agar base solution. This mixture was then plated on top of a preformed solid agar base. […] Fourteen days later, the number of colonies was counted in ten different fields.
(§3) Data was expressed as mean ±standard error (SE) and as absolute values. Continuous data with normal distribution were analyzed using T-test. Categorical data were analyzed using Mann-Whitney U test. A p value of 0.05 was considered significant. * P<0.05, ** P<0.01. Statistical analyses were performed using (SPSS software, (IBM).

[2] = test system: H460 cells (large cell carcinoma); test: Proliferation / survival assay and Giemsa stain, H460; type: cell-based, human; conditions: for H460 tumor cell proliferation, agent alone: 0.1 μg/ml, did not completely inhibit proliferation
Description: (§4) Color extraction was done using 0.1 N HCl. […] 6 wells were determined for each time point.

A549 derived tumors = test: A549 derived xenograft growth in Nude mice; type: in vivo; conditions: BKT140 400 μg/mice S.C. once daily 6/7 days a week
Description: (§5) 1*10^6 H460 cells mixed in 100 μl RPMI 1640 and 100 μl matrigel (BD Bioscience) were injected subcutaneously (S.C.) into the right flank of Nude mice. Tumor growth was followed for 19 days. 1*10^6 A549 cells mixed in 100 μl RPMI 1640 and 100 μl matrigel (BD Bioscience) were injected S.C. into the right flank of Nude mice. Tumor growth was followed for 35 days. Systemic BKT140 administration was performed as follows: BKT140 (400 μg/mice dissolved in PBS) was administered once daily 6/7 days a week, by S.C. injection into the left flank at a point distant at least 1.5 cm from the right sided tumor. Tumors size was calculated by measurement of tumor length and width using the following formula: 4/3*π*(length/2)*(width/2)^2.

[3] = test system: bone marrow derived cells; conditions: cited from earlier work
[4] = test system: A549 cells (Adenocarcinoma); test: Colony assay (agar), A549; type: cell-based, human
Description: as §1, §2, §3

[5] = test system: NSCLC cell lines (H358, A549, H460, H1299 and L4); test: Proliferation and survival assays, NSCLC cell lines; type: cell-based, human; conditions: 20 or 100 μg/ml BKT140, dose dependant
Description: as §4

H460 derived tumors = test: H460 derived xenograft growth in Nude mice; type: in vivo; conditions: BKT140 400 μg/mice S.C. once daily 6/7 days a week
Description: as §5

[6] = test system: A549 cells (Adenocarcinoma); conditions: for A549 tumor cell proliferation, agent alone: 0.1 μg/ml, did not completely inhibit proliferation
Description: To measure cell proliferation, 4000 cells were seeded into 96-well cell culture plates with 200 μl RPMI 1640 medium supplemented with 10% FCS under the following conditions: 37° C., and 5% CO2. Twenty-four hours later, the medium was to changed to RPMI 1640 supplemented with 1% FCS. 20 μg\ml, 50 μg/ml or 100 μg\ml BKT140, with or without Cisplatin 0.1 μg/ml or paclitaxel 0.1 μg/ml to 1 μg/ml μg/ml were added to the medium. For radiation experiments, prior to plating of cells, the cells were irradiated at the following doses 500 to 2000 Rad. Cultured cells were fixed with 2.5% Gluteraldehyde at the indicated time points and stained with 1% Methylene Blue. Color extraction was done using 0.1 N HCl. Absorbance of the solution in each well at 570 nm was read with micro-plate reader (Anthos Htll). 6 wells were determined for each time point.

[7] = test system: H460 cells (large cell carcinoma); test: Colony assay (agar), H460; type: cell-based, human
Description: as §1, §2, §3

[8] = test system: NSCLC cell lines (H358, A549, H460, H1299 and L4); test: Colony assay (agar), NSCLC cell lines; type: cell-based, human
Description: as §1, §2, §3

human CXCR4 = biological target: T1, human CXCR4 (Homo sapiens, UniProt P61073); test: Immunohistochemistry for CXCR4 in H460 derived tumors after S.C. BKT140; type: in vivo; conditions: BKT140 S.C. at a site distant from the tumor, 6 hours prior to sacrification
T1 construct: Tissue sections from H460 derived tumors were tested for CXCR4 expression; endogenous in cells; host or cells: H460 NSCLC cells grown as subcutaneous xenografts in Nude mice
T1 sequence (P61073 whole entry): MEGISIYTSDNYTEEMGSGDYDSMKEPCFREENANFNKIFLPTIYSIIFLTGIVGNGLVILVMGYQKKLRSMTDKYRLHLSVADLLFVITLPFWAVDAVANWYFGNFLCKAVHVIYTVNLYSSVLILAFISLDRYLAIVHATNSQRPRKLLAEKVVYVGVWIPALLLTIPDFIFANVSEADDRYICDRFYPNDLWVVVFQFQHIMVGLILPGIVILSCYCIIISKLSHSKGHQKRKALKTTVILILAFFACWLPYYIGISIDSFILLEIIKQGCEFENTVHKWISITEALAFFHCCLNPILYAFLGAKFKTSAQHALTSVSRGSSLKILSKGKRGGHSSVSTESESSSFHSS
Description: as §5
Tissue sections of tumor-bearing Nude mice were routinely fixed with formalin and embedded in paraffin. Antigen retrieval was performed, and sections were stained with either mAb 44708 (R&D Systems, Minneapolis, MN) or 12G5 (R&D Systems) for human CXCR4 (1:100) using a standard indirect avidin-biotin HRP method according to the manufacturer's instructions. 3-Amino-9-ethylcarbazole was used for color development and sections were counterstained with hematoxylin. As negative controls, sections were stained either with no primary Ab (PBS) or with an isotype-matched control Ab.

[9] = test system: H358 cells (Bronchoalveolar carcinoma); test: Colony assay (agar), H358; type: cell-based, human; conditions: 100 μg\ml BKT140 with CXCL12
Description: as §1, §2, §3

[10] = increasing BKT140 with irradiation 500 Rad, cisplatin 0.1 μg/ml or paclitaxel 0.1 μg/ml (paclitaxel data not shown)

## 4F-benzoyl-Arg-Arg-Nal-Cys-Tyr-Cit-Lys-DLys-Pro-Tyr-Arg-Cit-Cys-Arg-NH2 ({Benzoyl(4-F)}-RR[Nal]CY[Cit]K[dK]PYR[Cit]CR-NH2; cysteine pairing not given here) [BKT140]
[1]
  inhibitory effect on colony formation (compared between cell lines): most evident
[2]; BKT140 20 μg/ml
  H460 tumor cell proliferation: completely arrest
[2]; BKT140 100 μg/ml
  H460 cytotoxic effect: tumor cell death
[2]; [10]
  H460 proliferation, combination effect: additive anti proliferative effects
A549 derived tumors; 35 days
  volume / development of A549 derived tumors: much reduced effect
A549 derived tumors; A549
  decrease of median tumor volume: ~50%
[3]; post BKT140 injection
  time of return of mobilization to base line: 24 h
[3]; post S.C. injection
  time of peak mobilization of bone marrow derived cells: four to eight
[4]; 100 μg\ml BKT140 with CXCL12
  inhibitory effect on colony formation (compared between cell lines): least evident
[5]
  NSCLC proliferation (cytostatic / cytotoxic effect): inhibited; also recorded: both cytostatic and cytotoxic effects
  tumor cell survival: reduced tumor cell survival
H460 derived tumors; 19 days
  volume / development of H460 derived tumors: significantly reduced; also recorded: significantly delayed
H460 derived tumors; H460
  decrease of median tumor volume: ~50%
[6]; BKT140 20 μg/ml
  A549 tumor cell proliferation: did not affect
[6]; BKT140 100 μg/ml
  A549 tumor cell proliferation: significantly reduced
[6]; [10]
  A549 proliferation, combination effect: additive anti proliferative effects
[7]; 100 μg\ml BKT140 with CXCL12
  inhibitory effect on colony formation (compared between cell lines): most evident
[8]; single dose of 100 μg\ml BKT140 on day one, over entire range of CXCL12 concentrations
  colony formation: reduced colony formation
Human CXCR4
  CXCR4 staining of tumor tissue (binding to tumor expressed CXCR4): completely blocked CXCR4 staining
[9]
  inhibitory effect on colony formation (compared between cell lines): least evident

## N.N.[Cl][Pt][Cl] [cisplatin, reference compound]
[2]
  H460 tumor cell proliferation, agent alone: moderate anti-proliferative effect
[6]
  A549 tumor cell proliferation, agent alone: moderate anti-proliferative effect

## CC(=O)O[C@H]1C(=O)[C@@]2(C)[C@H]([C@H](OC(=O)c3ccccc3)[C@]3(O)C[C@H](OC(=O)[C@H](O)[C@@H](NC(=O)c4ccccc4)c4ccccc4)C(C)=C1C3(C)C)[C@]1(OC(C)=O)CO[C@@H]1C[C@@H]2O [paclitaxel, reference compound]
[2]
  H460 tumor cell proliferation, agent alone: moderate anti-proliferative effect
[6]
  A549 tumor cell proliferation, agent alone: moderate anti-proliferative effect

## CXCL12: The chemokine CXCL12 (stromal-derived factor-1 or SDF-1), the only natural ligand of CXCR4
[4]; similar CXCL12 concentrations (250 ng/ml)
  fold increase in colony number: 1.4 fold
[7]; 250 ng/ml CXCL12
  fold increase in colony number: 2.5 fold
[8]; CXCL12 25-250 ng/ml, colonies counted after fourteen days
  colony formation: dose dependant increase in colony formation

From patent US9439942B2, “Peptides and use thereof in the treatment of large cell lung cancer” (Biokine Therapeutics Ltd., priority 2012, dated 2016)
